Several values for one entry are separate records, joined by “and”; a condition that tells them apart may be missing. Equal values may be shown once.
What was measured:
LSt neurons [1] = assay: Fos-IR in galanin-IR LSt neurons after 8-OH-DPAT; assay type: in vivo, male rats; details: 0.8 mg/kg s.c.
Method: Activation of LSt neurons is assessed using Fos immunoreactivity (IR) as a marker for neural activation and galanin or CCK-IR to identify LSt cells.
One hour following the end of the behavioral test, animals are anesthetized using sodium pentobarbital (200 mg/kg; i.p.) and perfused transcardially with 100 ml 0.9% saline, followed by 500 ml of 4% paraformaldehyde in 0.1 M sodium phosphate buffer (PB, pH 7.3-7.4). Brain and spinal cords are removed and post fixed for 1 hr at room temperature in the fixative. Coronal sections of thoracic (T), lumbar (L) and sacral (S) spinal cord (T10-S4) are cut at 35 μm on a Microm freezing microtome (Richard Allen, Kalamazoo, Mich.) and collected in twelve parallel series in cryorotectant solution (30% sucrose, 30% ethylene glycol in 0.1 M PB; Watson et al, 1985). In addition, coronal sections ( 35 µm) through thalamus are cut and stored in four parallel series.
All incubations are performed at room temperature with gentle agitation. Series of spinal cord sections ([…]) are rinsed extensively in phosphate buffered saline (PBS) between incubations. Free-floating sections are blocked with 1% H2O2 for 10 min at room temperature and then soaked for one hour in incubation solution (PBS containing 0.1% bovine serum albumin and 0.4% triton X-100). Next, sections are incubated overnight with a primary antiserum in incubation solution to recognize Fos (polyclonal anti-Fos antiserum raised in rabbit; 1:10,000; Santa Cruz, Santa Cruz, Calif.). […]
Analysis of labeling for galanin or CCK, Fos, and dual labeling for Fos and Galanin or CCK, is performed on a Leica light microscope at 4×-40× magnification. Neurons single labeled for galanin or CCK are determined by brown staining of cytoplasm with a nucleus devoid of blue-black (Fos) reaction product. […] Dual labeling is expressed as the percentage of galanin or CCK cells that expressed Fos. […]

male rats = assay: Copulatory behavior after 8-OH-DPAT; assay type: in vivo; details: 0.8 mg/kg s.c. 30 minutes before test; E1-DP rats, n=3
Method: All male and female rats are sexually experienced. […] The female rats are bilaterally ovariectomized two weeks prior to testing. Sexual receptivity is induced using a standard regimen of exogenous estrogen and progesterone, similar to that used for the stimulus females, described above. One week before testing females receive hormone treatment and mating experience with sexually experienced male partners. All testing of experimental groups is performed four hours after onset of the dark period, in a rectangular mating arena (60-45-50 cm), under dim red illumination. After completion of the mating tests, the sexual partners are removed, and experimental animals remained in the test cage for an additional 60 minutes until sacrifice.
The number of mounts, intromissions and total duration of the tests, are recorded for analysis of copulatory behavior. Numbers of mounts and intromissions, as well as duration of test are compared using a one-way ANOVA. Post hoc comparisons are made using the Scheffe test with an alpha of 0.05 required for rejection of the null hypothesis.
The purpose of this example is to investigate neural activation of lumbar spinal cord in male rats that display minimal sexual activity prior to ejaculation. Therefore, male rats are treated with 8-hydroxy-2-(di-n-propylamino) tetralin (8-OH-DPAT), which decreases the number of mounts and intromissions prior to ejaculation. […]

[2] = Motor impairment after surgery; assay type: in vivo; details: number of SAP-injected control rats excluded; 10 excluded in total (3 SSP-SAP)
Method: (§1) Control animals are injected with non-conjugated equimolar concentrations of SAP. […] Rats with obvious motor impairment after surgery (n=10; 7 injected with SAP; 3 injected with SSP-SAP) are excluded from the study. Sexual behavior is first tested 10 days after lesion surgery, and during 5 subsequent twice-weekly tests. The trials are performed during the dark phase of the light cycle and consisted of the male rat being placed into the testing cage for 100 minutes with a receptive female. Stimulus females were ovariectomized and implanted subcutaneously (s.c.) with 5% 17-beta-estradiol benzoate silastic capsules. Progesterone (500 μg in 0.1 ml of sesame oil) was injected (s.c.) 4-6 hours prior to testing to induce sexual receptivity. Latencies and numbers of mounts, intromissions, and ejaculations are recorded, and vaginas of females are checked for seminal plugs multiple times during mating tests.

LSt neurons [3] = assay: Cell counts (galanin-IR, SPR-IR, NeuN-IR) in L3-L4 spinal cord after intraspinal SSP-SAP or SAP; assay type: in vivo; details: complete = galanin-IR LSt neurons less than 1/3 of untreated rats
From the text: First a membrane target located on the LSt neurons is identified. […] Identification of the SPR receptor on LSt cells enable the use of the targeted toxin SSP-SAP, which consists of the ribosome inhibitor protein toxin saporin (SAP) conjugated to a substance P analogue (SSP) with high affinity for SPR. SSP-SAP is infused into the L3-4 spinal cord at the location of the LSt cells in sexually experienced or sexually naive male rats. Male rats are allowed to mate with a receptive female during 6 pre-operative sessions (3 ejaculations or 100 minutes each).
All procedures are approved by the Animal Care and use Committee of the University of Cincinnati, Ohio and conformed to NIH guidelines involving vertebrate animals in research. Male rats are deeply anesthetized using ketamine/xylazine and laminectomy of L3 and L4 is performed. […]
Control animals are injected with non-conjugated equimolar concentrations of SAP. […] Latencies and numbers of mounts, intromissions, and ejaculations are recorded, and vaginas of females are checked for seminal plugs multiple times during mating tests. […]
Non-specific lesioning is determined by counting neurons visualized by neuronal marker N-IR. SPR containing cells are also counted in a standard area in the dorsal horn, as illustrated in FIG. 2A (area 2), to determine if lesioning is restricted to the area surrounding the central canal. […]

LSt neurons [4] = assay: Optical density of galanin-IR and SPR-IR around IML, CAN and SPN after LSt lesion; assay type: in vivo, rats
From the text: In these areas galanin-IR is present in fibers, while SPR-IR is located in neurons and fibers. […] In contrast, SPR-IR is not reduced following LSt lesions.
Following the final behavior test, animals are perfused intracardially with 4% paraformaldehyde and spinal cord tissue is collected for further processing. Spinal cords are cut into 35μm coronal sections and collected in 12 parallel series. Adjacent sections are stained for galanin, SPR or neuronal marker N using the general procedures as described in W. Truitt, M. Shipley, J. Veening, L. Coolen, J. Neurosci (2002). The primary antibodies and concentrations that are used include: Galanin—rabbit anti-galanin at 1:80,000 (PenLabs), Substance P receptor—rabbit anti-NK1 at 1:1,000 (Advanced Targeting Systems), and Neuronal marker N—mouse anti-NeuN at 1:10,000 (Chemicon).

LSt neurons [5] = assay: Sexual behavior tests after lesion surgery; assay type: in vivo, male rats; details: 6 post-surgery tests, 100 minutes with receptive female
Method: as §1
The effects of LSt lesions on display of sexual behavior are assessed in the three groups described above. LSt lesions have a dramatic effect on sexual behavior. […] Furthermore, ablation of LSt neurons appears to selectively block ejaculatory behavior while not affecting other components of sexual behavior.

Compound	activation of Galanin neurons (Fos) (LSt neurons [1]; 8-OH-DPAT alone, no exposure to female (DPc group))	Galanin-IR neurons containing Fos-IR (LSt neurons [1]; E1-DP males, after one ejaculation)	mean number of galanin-IR neurons (LSt neurons [1]; two groups (one ejaculation / no female), order of values not stated)	average number of intromissions prior to ejaculation (male rats)	average number of mounts prior to ejaculation (male rats)	rats with obvious motor impairment after surgery (excluded) [2]	lesions of LSt neurons (LSt neurons [3])	CAN-SPR optical density (LSt neurons [4]; Substance P receptor-IR around central autonomic nucleus, group in label)	IML-SPR optical density (LSt neurons [4]; Substance P receptor-IR around intermediolateral column, group in label)	SPN-SPR optical density (LSt neurons [4]; Substance P receptor-IR around sacral parasympathetic nucleus, group in label)	CAN-galanin optical density (LSt neurons [4]; galanin-IR around central autonomic nucleus, group in label)	IML-galanin optical density (LSt neurons [4]; galanin-IR around intermediolateral column, group (SAP, SSP-il, SSP-les) in label)	SPN-galanin optical density (LSt neurons [4]; galanin-IR around sacral parasympathetic nucleus, group in label)	display of ejaculatory behavior (LSt neurons [5])
CCCN(CCC)C1CCc2cccc(O)c2C1 (centres unmarked) [8-OH-DPAT, 8-hydroxy-2-(di-n-propylamino) tetralin]	do not result in activation	85.55%±1.76	33.67±4.06 and 33.33±5.53	1.33±0.67	2.33±1.20									
saporin						7	no lesions	380.26 ± 39.06 pixels (×1,000)	209.91 ± 30.92 pixels (×1,000)	392.68 ± 50.65 pixels (×1,000)	128.84 ± 25.81 pixels (×1,000)	58.82 ± 12.85 pixels (×1,000)	137.75 ± 14.99 pixels (×1,000)	continue to ejaculate regularly

Reference: patent US20040152631A1, “Methods for manipulating ejaculatory reflex and sensation of ejaculation and for treating sexual dysfunction” (priority 2002, published 2004)
